The results in this text go back to patent US6066628A, “Non-iron metalloporphyrins and methods of use” (Emory University, priority 1998, dated 2000).

The subject of test [1] is Y. enterocolitica. Kind of test: microbe, parasite or virus in culture. Format: cell-based.
The test system of test [2] is S. aureus. Format: cell-based, Staphylococcus aureus. The following applies: for MIC: S. aureus IR2419, dark (Table 10); for Minimal inhibitory concentration (MIC): methicillin-resistant S. aureus IR219, Nutrient broth (Table 2); for antibacterial activity: S. aureus.
Test [3] deals with M. smegmatis. In kind it is cell-based, Mycobacterium smegmatis. The note with it: for MIC / Minimal inhibitory concentration (MIC): M. smegmatis LR222; for MIC: dark (Table 10); for Minimal inhibitory concentration (MIC): LB + Tween 80 (Table 2); for antibacterial activity: M. smegmatis.
The next test has as its system bacteria. In kind it is cell-based. The following applies: for MICs: porphyrins without Ga ions, all tested bacteria.
Test [4] has as its system S. aureus. Kind of test: Competition of heme/protoporphyrin IX with Ga-PPIX antibacterial activity. Format: cell-based, Staphylococcus aureus.
The subject of test [5] is M. smegmatis. The test is described as above.
Test [6] concerns Y. enterocolitica. Described as above.
Test [7] has as its system Y. enterocolitica. Kind of test: Minimal bactericidal concentration. Format: cell-based. The note with it: reduces plating efficiency more than 99.9%, minimal exposure to light; for MBC: Yersinia enterocolitica.
Test [8] deals with S. aureus. Put plainly: Minimal bactericidal concentration. The following applies: reduces plating efficiency more than 99.9%, minimal exposure to light; for MBC: Staphylococcus aureus. In kind it is cell-based, Staphylococcus aureus. Here is the method: Minimal bactericidal concentrations (MBCs) were determined essentially the same way as MICs except that the amount of killing with a particular concentration of porphyrin derivative was determined by plating on solid microbiological media (LB plates or LB+Tween 80). Media were solidified by the incorporation of 1.5% agar (Difco Laboratories). Concentrations of porphyrins that produced 99.9% reduction in bacterial counts were considered bactericidal [Hindler et al. (1994) supra].
MBC were determined by plating bacterial cultures that have been incubate
in the presence of MPs at concentrations higher than MIC. MBC was defined
as a concentration of a particular MP which reduces the plating efficienc
more than 99.9%. Experiments were done with minimal exposure to light
(addition of porphyrins waa done in the presence of artifical light).

The test system of test [9] is M. smegmatis. Put plainly: Minimal bactericidal concentration. The following applies: reduces plating efficiency more than 99.9%, minimal exposure to light; for MBC: Mycolicibacterium smegmatis. Format: cell-based, Mycobacterium smegmatis.
The mark [10] stands for this setting: +1 μg/ml Ga-PPIX, competitor 1 μg/ml.
[11] abbreviates: +1 μg/ml Ga-PPIX, competitor 10 μg/ml.
Setting [12] is: +1 μg/ml Ga-PPIX, competitor 20 μg/ml.
The mark [13] stands for this setting: +1 μg/ml Ga-PPIX, competitor 100 μg/ml.
[14] abbreviates: -1 μg/ml Ga-PPIX (without Ga-PPIX), 1 μg/ml.
[15] abbreviates: -1 μg/ml Ga-PPIX (without Ga-PPIX), 10 μg/ml.
The mark [16] stands for this setting: -1 μg/ml Ga-PPIX (without Ga-PPIX), 20 μg/ml.
Where [17] appears, read: -1 μg/ml Ga-PPIX (without Ga-PPIX), 100 μg/ml.
Where [18] appears, read: Staphylococcus aureus, read-out: MIC.
Setting [19] is: Mycolicibacterium smegmatis, read-out: MIC.
The mark [20] stands for this setting: iron restriction / 2,2'-dipyridyl.

In brackets after ≈: the same amount, converted by molar mass. Several values for one entry are separate records, joined by “and”; a condition that tells them apart may be missing. Equal entries are not always repeated. Where two headings read alike, the source gives them in different places.

With `C=Cc1c(C)c2cc3nc(c(CC(=O)O)c4[nH]c(cc5nc(cc1[nH]2)C(C)=C5CC)c(C)c4C(=O)O)[C@@H](CCC(=O)O)[C@@H]3C` [Ce6, chlorin e6, reference compound], the MIC against Y. enterocolitica [1] was 20 and > 10; against S. aureus [2], 20 µg/mL (≈ 33.5 µM); in the test on M. smegmatis [3], 20 µg/mL (≈ 33.5 µM). Also, the “MICs” value against bacteria is “very large MICs”.

Regarding `C=CC1=C(C)c2cc3[n-]c(cc4[n-]c(cc5nc(cc1n2)C(C)=C5C=C)c(C)c4CCC(=O)O)c(CCC(=O)O)c3C.[Cu+2]` [Cu-PPIX], the “Minimal inhibitory concentration (MIC)” value in the test on Y. enterocolitica [1] is 20; in the test with S. aureus [2], over 40 µg/mL; in the test with M. smegmatis [3] it was 20 µg/mL.

As for `C=CC1=C(C)c2cc3[n-]c(cc4[n-]c(cc5nc(cc1n2)C(C)=C5C=C)c(C)c4CCC(=O)O)c(CCC(=O)O)c3C.[Fe+2]` [Fe-PPIX], the “Minimal inhibitory concentration (MIC)” value in the test with Y. enterocolitica [1] was over 40; in the test on S. aureus [2], over 40 µg/mL; in the test on M. smegmatis [3] it was over 40 µg/mL. Also, the growth entry with S. aureus [4] (setting [10]) is reported as “-”; with S. aureus [4] (setting [11]) it was “-”; with S. aureus [4] (setting [12]), “-”; with S. aureus [4] (setting [13]), “-”; in the test on S. aureus [4] (setting [14]) it was “+”; with S. aureus [4] (setting [15]), “+”. For the same compound, the growth result with S. aureus [4] (setting [16]) is given as “+”; in the test on S. aureus [4] (setting [17]), “+”; in the test on M. smegmatis [5] (setting [10]), “-”; in the test with M. smegmatis [5] (setting [11]) it was “-”; in the test on M. smegmatis [5] (setting [12]), “-”; with M. smegmatis [5] (setting [13]) it was “-”. Also, the growth result is on record as “+” in the test with M. smegmatis [5] (setting [14]); “+” in the test with M. smegmatis [5] (setting [15]); “+” in the test with M. smegmatis [5] (setting [16]); “+” in the test on M. smegmatis [5] (setting [17]); “-” with Y. enterocolitica [6] (setting [10]); “+” with Y. enterocolitica [6] (setting [11]). The growth result in the test on Y. enterocolitica [6] (setting [12]), in the test with Y. enterocolitica [6] (setting [13]), in the test on Y. enterocolitica [6] (setting [14]), in the test with Y. enterocolitica [6] (setting [15]), in the test with Y. enterocolitica [6] (setting [16]) and with Y. enterocolitica [6] (setting [17]) was “+” throughout. The “antagonism of Ga-PPIX antibacterial activity” value in the test with S. aureus [4] (heme 10- to 100-fold molar excess, protoporphyrin IX 100-fold excess) is “did not antagonize”; in the test with M. smegmatis [5] (heme 10- to 100-fold molar excess, protoporphyrin IX 20- and 100-fold excess), “did not antagonize”. For the same compound, in the test on S. aureus [4] (heme dissolved in 20 mM NaOH), the “toxic effect on S. aureus” value was “not observed”.

On to `CCC1=C(C)C2=Cc3c(C)c(CCC(=O)O)c4[n]3[Ga][n]3c(c(C)c(CC)c3=CC3=NC(=C4)C(CCC(=O)O)=C3C)=CC1=N2` [GA-MP-IX], for which the MIC is 2.5 and 5 against Y. enterocolitica [1] (in µg/mL); 1.6 µg/mL with S. aureus [2]; 0.4 µg/mL in the test on M. smegmatis [3]. For the same compound, the entries for the “Minimal bactericidal concentration (MBC)” value in the test with Y. enterocolitica [7], in the test on S. aureus [8] and with M. smegmatis [9] were 5, over 13 and 10, respectively.

As to `CCC1=C(CC)c2cc3[nH]c(cc4nc(cc5[nH]c(cc1n2)c(CC)c5CC)C(CC)=C4CC)c(CC)c3CC.[Ga]` [GA-OEP], the MIC against Y. enterocolitica [1] (in µg/mL) amounted to 20; in the test on S. aureus [2], 10 µg/mL; against M. smegmatis [3], 5 µg/mL. Further, the “Minimal bactericidal concentration (MBC)” value in the test with Y. enterocolitica [7] is over 20; in the test with S. aureus [8] it was 5; in the test on M. smegmatis [9] it was 10.

With `C1=CC2=NC1=Cc1ccc3[n]1[Ga][n]1c(ccc1=CC1=NC(=C3)C=C1)=C2` [GA-POR], the MIC was determined as 20 in the test with Y. enterocolitica [1] (in µg/mL), 50 µg/mL against S. aureus [2] and 5 µg/mL against M. smegmatis [3].

In the case of `C=CC1=C(C)C2=Cc3c(C=C)c(C)c4[n]3[Gd]([Cl])[n]3c(c(C)c(CCC(=O)O)c3=CC3=NC(=C4)C(C)=C3CCC(=O)O)=CC1=N2` [Gd-PPIX, Gadolinium protoporphyrin IX], the “Minimal bactericidal concentration (MBC)” value in the test with Y. enterocolitica [7] came out at 10.

What is called MBC is the lowest tested concentration that kills the bacteria rather than only halting them. High values mean weaker bactericidal potency, low ones greater bactericidal potency. For the compound `CCC1=C(C)c2cc3[nH]c(cc4nc(cc5[nH]c(cc1n2)c(C)c5CCC(=O)O)C(CCC(=O)O)=C4C)c(C)c3CC` [MP-IX, mesoporphyrin IX, reference compound], the “antibacterial activity” value in the test on S. aureus [2] and with M. smegmatis [3] was “largely inactive” throughout. Besides, the results for the MIC in the test with S. aureus [2] (setting [18]) and with M. smegmatis [3] (setting [19]) were 20 µg/mL (≈ 35.3 µM) and over 40 µg/mL, respectively. In addition, the minimum bactericidal concentration (MBC) is over 10 µg/mL against Y. enterocolitica [7], over 13 µg/mL in the test with S. aureus [8] and over 40 µg/mL in the test with M. smegmatis [9].

On to `C=CC1=C(C)c2cc3[n-]c(cc4[n-]c(cc5nc(cc1n2)C(C)=C5C=C)c(C)c4CCC(=O)[O-])c(CCC(=O)[O-])c3C.[H+].[H+].[Ni+2]` [Ni-PPIX], for which the “Minimal inhibitory concentration (MIC)” value in the test with Y. enterocolitica [1] was over 40; in the test with S. aureus [2] it was over 40 µg/mL; with M. smegmatis [3], 20 µg/mL.

Take `CCC1=C(CC)c2cc3[nH]c(cc4nc(cc5[nH]c(cc1n2)c(CC)c5CC)C(CC)=C4CC)c(CC)c3CC` [OEP, octaethylporphine, reference compound]: the MIC stood at 5 µg/mL (≈ 9.35 µM) against Y. enterocolitica [1] (Yersinia enterocolitica), 10 µg/mL (≈ 18.7 µM) in the test on S. aureus [2] (setting [18]) and 10 µg/mL (≈ 18.7 µM) in the test on M. smegmatis [3] (setting [19]). Further, the minimum bactericidal concentration (MBC) against Y. enterocolitica [7] was 5 µg/mL (≈ 9.35 µM); in the test with M. smegmatis [9], 10 µg/mL (≈ 18.7 µM). In the test on S. aureus [8], the “Minimal bactericidal concentration (MBC)” value is 5/10.

For `C1=Cc2cc3ccc(cc4nc(cc5ccc(cc1n2)[nH]5)C=C4)[nH]3` [POR, porphine, reference compound], the MIC in the test on Y. enterocolitica [1] (Yersinia enterocolitica, read-out: MIC) is 30 µg/mL (≈ 96.7 µM); with Y. enterocolitica [1] (in µg/mL) it was 20; with S. aureus [2] (setting [18]) it was 50 µg/mL (≈ 161 µM); in the test on M. smegmatis [3] (setting [19]), over 40 µg/mL. In addition, the “MICs” value against bacteria is reported as “very large MICs”.

Turning to `C=CC1=C(C)c2cc3[n-]c(cc4nc(cc5[n-]c(cc1n2)c(C)c5CCC(=O)O)C(CCC(=O)O)=C4C)c(C)c3C=C.[Pt+2]` [Pt-PPIX, Platinum protoporphyrin IX], the entries for the “Minimal inhibitory concentration (MIC)” value with Y. enterocolitica [1], with S. aureus [2] and in the test on M. smegmatis [3] were 30, 40 µg/mL and 20 µg/mL, respectively.

Regarding `O=C(O)CCC1=C(CC(=O)O)c2cc3[nH]c(cc4nc(cc5[nH]c(cc1n2)c(CC(=O)O)c5CCC(=O)O)C(CC(=O)O)=C4CCC(=O)O)c(CC(=O)O)c3CCC(=O)O` [UP-1, uroporphyrin I, reference compound], the “HemR requirement of bacterial sensitivity” value in the test with Y. enterocolitica [1] is reported as “did not require expression of HemR”. Moreover, the values for the MIC with Y. enterocolitica [1] (Yersinia enterocolitica), in the test on S. aureus [2] (setting [18]) and in the test with M. smegmatis [3] (setting [19]) were 10 µg/mL (≈ 12 µM), 20 µg/mL (≈ 24.1 µM) and 20 µg/mL (≈ 24.1 µM), respectively. Besides, the “antibacterial activity” value in the test with S. aureus [2] and in the test with M. smegmatis [3] was “largely inactive” each time. The “Minimal bactericidal concentration (MBC)” value in the test with Y. enterocolitica [7] is listed as 5/10. For the same compound, the MBC with S. aureus [8] turned out to be 20 µg/mL (≈ 24.1 µM); in the test on M. smegmatis [9] it was 10 µg/mL (≈ 12 µM).

For the compound `CC1(C)S[C@@H]2[C@H](NC(=O)[C@H](N)c3ccccc3)C(=O)N2[C@H]1C(=O)O` [ampicillin, reference compound], the “effect of iron restriction medium conditions on MIC” value (shortened to “effect … on MIC”) in the test on bacteria (setting [20]) is reported as “not affected”.

Take `O=C(N[C@H](CO)[C@H](O)c1ccc([N+](=O)[O-])cc1)C(Cl)Cl` [chloramphenicol, reference compound]: the “effect … on MIC” value in the test with bacteria (setting [20]) was “not affected”.

Take `CN[C@H](CC(C)C)C(=O)N[C@H]1C(=O)N[C@@H](CC(N)=O)C(=O)N[C@H]2C(=O)N[C@H]3C(=O)N[C@H](C(=O)N[C@H](C(=O)O)c4cc(O)cc(O)c4-c4cc3ccc4O)[C@H](O)c3ccc(c(Cl)c3)Oc3cc2cc(c3O[C@@H]2O[C@H](CO)[C@@H](O)[C@H](O)[C@H]2O[C@H]2C[C@](C)(N)[C@H](O)[C@H](C)O2)Oc2ccc(cc2Cl)[C@H]1O` [vancomycin, reference compound]: the “effect … on MIC” value in the test with bacteria is listed as “not affected”.

Turning to Gallium (+3) hematoporphyrin IX, in the test with bacteria, the “antibacterial activity” value is listed as “active against all microorganisms challenged”.
